# Values quoted from earlier work as cited in US20190233345A1, “AGRICULTURAL SYSTEMS, COMPOSITIONS AND METHODS FOR INCREASING CROP YIELD” (E. I. DU PONT DE NEMOURS AND COMPANY, priority 2016, published 2019).
# Experiments:
# [1] = tested on: lepidopteran pests of soy (including Army Worm; Spodoptera frugiperda and Velvet Bean Caterpillar (Anticarsia gemmatalis))
# [2] = tested on: lepidopteran pests of corn (including Army Worm; Spodoptera frugiperda)
Compound,LD-50 [1],LD-50 [2]
"CNC(=O)c1cc(C#N)cc(C)c1NC(=O)c1cc(Br)nn1-c1ncccc1Cl [HGW, cyantraniliprole]",50-60 ppb,50-60 ppb
"CNC(=O)c1cc(Cl)cc(C)c1NC(=O)c1cc(Br)nn1-c1ncccc1Cl [Prototype E2Y, chlorantraniliprole]",15-20 ppb,15-20 ppb
